Measured values: patent US20140212981A1, “METHODS AND SYSTEMS FOR DETERMINING THE AMOUNT OF THIOPURINE METABOLITES IN A SAMPLE” (Laboratory Corporation of America Holdings, priority 2012, published 2014)
Blank lines part the entries; values can stand above or below the compound they belong to.

Assays:
[1] = Acid-promoted conversion (hydrolysis) as a function of time; assay type: physicochemical; conditions: FIG. 2C
Source text: The method comprises converting the one or more 6-thioguanine nucleotide compounds to 6-thioguanine or a 6-thioguanine hydrolysis product. The converting can be carried out in any manner known to those of skill in the art. In some embodiments, the converting comprises contacting the one or more 6-thioguanine nucleotide compounds with a sulfur-containing reducing agent to yield one or more reduced 6-thioguanine nucleotide compounds. Any suitable sulfur-containing reducing agent can be used. In some embodiments, the sulfur-containing reducing agent is dithioerythritol. In some such embodiments, the method comprises contacting the one or more reduced 6-thioguanine nucleotide compounds with an acidic hydrolyzing agent. Any suitable acidic hydrolyzing agent can be used. In some embodiments, the acidic hydrolyzing agent is perchloric acid, nitric acid, sulfuric acid, or a combination thereof. In some such embodiments, the acidic hydrolyzing agent is perchloric acid.
In some embodiments the hydrolysis of 6-methylmercaptopurine nucleotide compounds proceeds according to Scheme 2 below. […] The 6-methylmercaptopurine is readily hydrolyzed in the presence of acid to form a 6-methylmercaptopurine hydrolysis product comprising 4-amino-5-(methylthio) carbonyl imidazole. […]

[2] = cited from earlier work; for Therapeutic Range: metabolite level in red blood cells of subjects on thiopurine treatment, exemplary therapeutic levels

Rate of acid-promoted conversion relative to unlabeled 6-MMP ([1]; D3-6-MMP to D3-6-MMP*): same rate as unlabeled 6-MMP
Compound: [2H]C([2H])([2H])Sc1ncnc2[nH]cnc12 [D3-6-MMP]

Time for acid-promoted conversion to hydrolysis product ([1]; 6-MMP to 6-MMP*, perchloric acid hydrolysis): less than 140 minutes
Compound: CSc1ncnc2nc[nH]c12 [6-MMP, 6-methylmercaptopurine]

Compound: 6-methylmercaptopurine nucleotides [6-MMPNs]
Therapeutic Range [2]: <5700 pmol/8 × 10^8RBC
Alert Values ([2]; metabolite level in red blood cells, levels in this range require modulation of therapy): >5700 pmol/8 × 10^8RBC

Compound: 6-thioguanine nucleotides [6-TGNs]
Therapeutic Range [2]: 235 - 450 pmol/8 × 10^8RBC
